US12421243B2, “Pharmaceutically effective compounds inhibiting selectively the myosin 2 isoforms” (PRINTNET KERESKEDELMI ÉS SZOLGÁLTATÓ KFT., priority 2018, dated 2025)

What was measured:
[1] = tested on: isolated rabbit skeletal muscle myosin (skeletal); assay: actomyosin steady state ATPase measurement, skeletal muscle myosin; format: biochemical; details: for % inhibition at 5 μM (or 10 μM if racemate) Skeletal: 5 μM (10 μM if racemate); for % inhibition at 5 μM (or 10 μM if racemate) Skeletal / % inhibition at 50 μM (or 100 μM if racemate) Skeletal: ATPase activity; for % inhibition at 50 μM (or 100 μM if racemate) Skeletal: 50 μM (100 μM if racemate); for IC50: concentration required for semi-maximal inhibition of ATPase; for Inhibition (%) skeletal: maximum inhibition, compounds in IC50 range 1-2 μM; for % inhibition. complete Skeletal: maximum value of inhibition of ATPase activity
Source text: (§1) […]; (ii) the concentration required for semi-maximal inhibition.

[2] = target: isolated smooth muscle myosin (UniProt P10587); format: biochemical, chamois; details: concentration required for semi-maximal inhibition of ATPase
Sequence of isolated smooth muscle myosin (P10587 whole entry): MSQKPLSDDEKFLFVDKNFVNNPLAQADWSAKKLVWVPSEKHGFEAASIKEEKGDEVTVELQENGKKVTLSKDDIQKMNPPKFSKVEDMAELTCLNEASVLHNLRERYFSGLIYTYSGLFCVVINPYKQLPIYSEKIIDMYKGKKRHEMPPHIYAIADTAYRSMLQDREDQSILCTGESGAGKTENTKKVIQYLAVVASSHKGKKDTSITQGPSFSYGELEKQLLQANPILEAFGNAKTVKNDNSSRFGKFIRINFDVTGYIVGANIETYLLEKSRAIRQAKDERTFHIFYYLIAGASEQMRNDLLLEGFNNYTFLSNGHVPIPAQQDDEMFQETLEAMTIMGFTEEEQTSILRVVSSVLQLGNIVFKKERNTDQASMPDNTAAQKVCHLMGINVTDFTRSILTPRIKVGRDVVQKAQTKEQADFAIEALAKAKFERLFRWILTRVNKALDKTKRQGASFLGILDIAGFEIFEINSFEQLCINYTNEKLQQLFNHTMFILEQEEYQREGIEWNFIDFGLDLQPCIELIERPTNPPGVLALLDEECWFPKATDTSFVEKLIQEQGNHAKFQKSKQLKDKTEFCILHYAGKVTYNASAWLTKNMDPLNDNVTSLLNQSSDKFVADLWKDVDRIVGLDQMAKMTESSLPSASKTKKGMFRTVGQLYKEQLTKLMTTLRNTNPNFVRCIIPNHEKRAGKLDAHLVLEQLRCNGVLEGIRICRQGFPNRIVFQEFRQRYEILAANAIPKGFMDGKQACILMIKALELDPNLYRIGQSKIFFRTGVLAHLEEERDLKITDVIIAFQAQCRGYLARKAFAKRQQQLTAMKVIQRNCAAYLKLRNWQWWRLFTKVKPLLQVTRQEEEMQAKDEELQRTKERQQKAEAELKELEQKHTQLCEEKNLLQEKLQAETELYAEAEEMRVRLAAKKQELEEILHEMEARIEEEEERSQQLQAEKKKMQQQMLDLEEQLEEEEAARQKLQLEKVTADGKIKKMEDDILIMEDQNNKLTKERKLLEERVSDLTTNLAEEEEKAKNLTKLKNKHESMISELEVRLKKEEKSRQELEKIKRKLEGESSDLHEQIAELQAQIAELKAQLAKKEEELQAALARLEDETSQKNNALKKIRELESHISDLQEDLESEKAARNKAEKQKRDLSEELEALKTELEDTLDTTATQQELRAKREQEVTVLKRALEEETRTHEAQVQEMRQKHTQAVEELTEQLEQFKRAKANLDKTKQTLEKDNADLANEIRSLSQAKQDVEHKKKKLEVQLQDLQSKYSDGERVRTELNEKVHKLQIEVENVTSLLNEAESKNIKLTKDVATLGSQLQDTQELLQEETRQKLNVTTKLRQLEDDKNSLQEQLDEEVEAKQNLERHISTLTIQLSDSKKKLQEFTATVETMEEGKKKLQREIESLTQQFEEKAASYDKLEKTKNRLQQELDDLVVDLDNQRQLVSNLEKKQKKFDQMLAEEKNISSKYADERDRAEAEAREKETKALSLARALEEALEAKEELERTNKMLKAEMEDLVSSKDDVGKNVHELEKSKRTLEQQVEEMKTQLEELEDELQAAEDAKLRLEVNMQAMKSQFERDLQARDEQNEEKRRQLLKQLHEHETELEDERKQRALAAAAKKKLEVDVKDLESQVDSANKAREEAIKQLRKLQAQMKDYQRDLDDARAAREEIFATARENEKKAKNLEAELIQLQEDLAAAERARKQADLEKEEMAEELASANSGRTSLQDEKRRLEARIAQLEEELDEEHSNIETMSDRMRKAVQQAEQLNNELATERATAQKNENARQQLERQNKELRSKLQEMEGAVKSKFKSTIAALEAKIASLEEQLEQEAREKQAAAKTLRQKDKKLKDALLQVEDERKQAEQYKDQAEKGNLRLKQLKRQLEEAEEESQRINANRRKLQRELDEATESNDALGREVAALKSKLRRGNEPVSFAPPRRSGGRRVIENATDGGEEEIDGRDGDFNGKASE
Source text: (ii) the concentration required for semi-maximal inhibition.

[3] = target: isolated smooth muscle myosin (UniProt P10587); format: biochemical, chamois; details: for % inhibition at 5 μM (or 10 μM if racemate) Smooth: 5 μM (10 μM if racemate); for % inhibition at 5 μM (or 10 μM if racemate) Smooth / % inhibition at 50 μM (or 100 μM if racemate) Smooth: ATPase activity; for % inhibition at 50 μM (or 100 μM if racemate) Smooth: 50 μM (100 μM if racemate); for % inhibition. complete Smooth: maximum value of inhibition of ATPase activity; for Inhibition (%) smooth: maximum inhibition, compounds in IC50 range 1-5 μM
[4] = target: recombinant Dictyostelium miozin (Dictyostelium) (Dictyostelium discoideum, UniProt P08799); assay: actomyosin steady state ATPase measurement, Dictyostelium myosin; format: biochemical; details: for IC50: concentration required for semi-maximal inhibition of ATPase, read-out: IC50 (μM) Dicty; for % inhibition. complete Dicty: maximum value of inhibition of ATPase activity; for inhibition at 5 µM: read-out: % inhibition at 5 μM (or 10 μM if racemate) Dicty; for inhibition at 50 µM: read-out: % inhibition at 50 μM (or 100 μM if racemate) Dicty
Sequence of recombinant Dictyostelium miozin (Dictyostelium) (P08799 whole entry): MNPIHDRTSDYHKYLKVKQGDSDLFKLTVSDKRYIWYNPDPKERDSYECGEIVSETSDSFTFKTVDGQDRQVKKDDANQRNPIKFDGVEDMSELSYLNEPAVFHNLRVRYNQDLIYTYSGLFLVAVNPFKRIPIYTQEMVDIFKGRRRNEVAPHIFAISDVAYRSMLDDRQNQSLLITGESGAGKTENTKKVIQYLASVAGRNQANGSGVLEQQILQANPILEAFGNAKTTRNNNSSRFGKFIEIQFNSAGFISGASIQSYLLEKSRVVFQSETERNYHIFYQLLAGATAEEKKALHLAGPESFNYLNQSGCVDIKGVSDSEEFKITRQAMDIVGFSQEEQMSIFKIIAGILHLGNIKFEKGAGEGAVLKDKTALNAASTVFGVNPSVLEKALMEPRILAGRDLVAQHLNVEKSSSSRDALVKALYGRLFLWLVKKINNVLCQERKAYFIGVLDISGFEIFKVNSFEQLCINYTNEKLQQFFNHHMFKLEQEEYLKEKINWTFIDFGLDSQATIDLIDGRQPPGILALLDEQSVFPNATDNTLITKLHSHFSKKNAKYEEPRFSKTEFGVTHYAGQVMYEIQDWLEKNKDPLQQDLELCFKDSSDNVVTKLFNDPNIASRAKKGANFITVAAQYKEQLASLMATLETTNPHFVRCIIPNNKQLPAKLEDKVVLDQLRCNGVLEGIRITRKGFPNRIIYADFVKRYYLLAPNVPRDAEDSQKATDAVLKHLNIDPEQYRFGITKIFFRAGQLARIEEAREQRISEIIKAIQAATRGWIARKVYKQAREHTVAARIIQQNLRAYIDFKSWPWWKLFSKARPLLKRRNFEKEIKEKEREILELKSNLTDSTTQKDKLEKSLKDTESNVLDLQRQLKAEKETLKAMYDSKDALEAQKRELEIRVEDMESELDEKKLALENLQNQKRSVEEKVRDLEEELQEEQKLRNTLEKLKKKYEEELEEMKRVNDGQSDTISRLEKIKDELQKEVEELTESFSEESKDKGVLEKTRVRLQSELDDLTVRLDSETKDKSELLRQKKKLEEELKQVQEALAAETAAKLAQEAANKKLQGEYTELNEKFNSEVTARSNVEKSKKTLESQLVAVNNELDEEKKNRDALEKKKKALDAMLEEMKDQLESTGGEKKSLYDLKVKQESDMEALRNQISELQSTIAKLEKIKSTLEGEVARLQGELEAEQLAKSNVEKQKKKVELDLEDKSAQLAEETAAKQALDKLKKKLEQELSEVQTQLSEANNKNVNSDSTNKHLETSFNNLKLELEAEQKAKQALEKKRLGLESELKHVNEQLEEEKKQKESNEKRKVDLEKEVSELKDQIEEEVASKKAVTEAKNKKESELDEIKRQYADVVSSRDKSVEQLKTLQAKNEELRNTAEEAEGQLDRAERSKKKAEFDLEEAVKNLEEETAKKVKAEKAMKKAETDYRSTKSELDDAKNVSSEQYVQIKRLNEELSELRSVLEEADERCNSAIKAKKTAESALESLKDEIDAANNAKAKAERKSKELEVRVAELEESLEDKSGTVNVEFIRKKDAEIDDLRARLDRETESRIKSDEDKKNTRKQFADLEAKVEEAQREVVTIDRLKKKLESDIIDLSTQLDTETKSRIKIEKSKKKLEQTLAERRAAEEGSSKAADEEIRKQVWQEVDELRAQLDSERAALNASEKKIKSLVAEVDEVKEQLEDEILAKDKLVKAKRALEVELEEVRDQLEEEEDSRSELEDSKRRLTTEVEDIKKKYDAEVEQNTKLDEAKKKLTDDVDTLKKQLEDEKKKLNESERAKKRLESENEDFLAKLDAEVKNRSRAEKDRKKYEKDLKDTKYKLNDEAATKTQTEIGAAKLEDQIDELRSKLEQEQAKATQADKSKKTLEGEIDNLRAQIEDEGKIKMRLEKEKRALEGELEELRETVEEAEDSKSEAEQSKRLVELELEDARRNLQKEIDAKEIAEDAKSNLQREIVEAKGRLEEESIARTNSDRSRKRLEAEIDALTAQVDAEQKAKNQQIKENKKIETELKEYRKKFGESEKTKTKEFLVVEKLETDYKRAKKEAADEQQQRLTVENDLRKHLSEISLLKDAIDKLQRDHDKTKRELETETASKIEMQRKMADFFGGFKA
Source text: as §1

[5] = target: T1, isolated porcine cardiac ventricular myocardium (cardiac) (Sus scrofa, UniProt P79293); assay: actomyosin steady state ATPase measurement, cardiac myosin; format: biochemical; details: for IC50: concentration required for semi-maximal inhibition of ATPase; for % inhibition. complete cardiac: maximum value of inhibition of ATPase activity; for inhibition at 5 µM: read-out: % inhibition at 5 μM (or 10 μM if racemate) cardiac, 5 μM (10 μM if racemate); for inhibition at 5 µM / inhibition at 50 µM: ATPase activity; for inhibition at 50 µM: read-out: % inhibition at 50 μM (or 100 μM if racemate) cardiac, 50 μM (100 μM if racemate)
T1 construct: isolated porcine cardiac ventricular myocardium (cardiac); from tissue; host or cells: porcine cardiac ventricle
Source text: as §1

Row | Compound | % inhibition at 5 μM (or 10 μM if racemate) Skeletal [1] [%] | % inhibition at 50 μM (or 100 μM if racemate) Skeletal [1] [%] | IC50 [1] [µM] | Inhibition (%) skeletal [1] [%] | % inhibition. complete Skeletal [1] [%] | IC50 [2] [µM] | % inhibition at 5 μM (or 10 μM if racemate) Smooth [3] [%] | % inhibition at 50 μM (or 100 μM if racemate) Smooth [3] [%] | % inhibition. complete Smooth [3] [%] | IC50 [4] [µM] | % inhibition. complete Dicty [4] [%] | inhibition at 5 µM [4] [%] | inhibition at 50 µM [4] [%] | IC50 [5] [µM] | % inhibition. complete cardiac [5] [%] | inhibition at 5 µM [5] [%] | inhibition at 50 µM [5] [%] | Inhibition (%) smooth [3] [%] | Inhibition (%) cardiac ([5]; maximum inhibition, compounds in IC50 range 3-6 μM) [%]
1 | CN(C)c1ccc(N2CC[C@@]3(O)C(=O)c4ccsc4N=C23)cc1 [Compound 249, (9S)-12-[4-(dimethylamino)phenyl]-9-hydroxy-4-thia-2,12-diazatricyclo[7.3.0.0^3,7]dodeca-1,3(7),5-trien-8-one] | 80 | 97 | 1.2 | 100 | 100 | 13 | 19 | 55 | 69 | 10 | 47 | 15 | 39 | 35 | 90 | 11 | 52 | – | –
2 | Cc1ccc(N2CCC3(O)C(=O)c4ccncc4N=C23)cc1 (stereo not drawn) [Compound 247, 1-[4-(Methyl)phenyl]-3a-hydroxy-1H,2H,3H,3aH,4H-pyrrolo[2,3-b]1,7-naphthyridin-4-one] | 74 | 96 | 1.7 | – | 99 | 44 | 3 | 15 | 29 | 71 | 54 | 4 | 22 | 31 | 70 | 9 | 43 | – | –
3 | CC(=O)c1ccc(N2CCC3(O)C(=O)c4ccncc4N=C23)cc1 (stereo not drawn) [Compound 240, 1-(4-Acetylphenyl)-3a-hydroxy-1H,2H,3H,3aH,4H-pyrrolo[2,3-b]1,7-naphthyridin-4-one] | 49 | 83 | 4.3 | – | 91 | 1.5 | 18 | 23 | 24 | 0.39 | – | 24 | 26 | 8.1 | 37 | 13 | 31 | 24 | –
4 | Cc1cc2c(s1)N=C1N(c3ccc(N(C)C)cc3)CCC1(O)C2=O (stereo not drawn) [Compound 250, 12-[4-(Dimethylamino)phenyl]-9-hydroxy-5-methyl-4-thia-2,12-diazatricyclo[7.3.0.0^3,7]dodeca-1,3(7),5-trien-8-one] | 93 | 98 | 0.3 | – | 99 | – | – | – | – | 18 | 68 | 15 | 50 | 9 | 76 | 26 | 64 | – | –
5 | Cc1ccc(N2CCC3(O)C(=O)c4cc(C)sc4N=C23)cc1 (stereo not drawn) [Compound 235, 12-[4-(Methyl)phenyl]-9-hydroxy-5-methyl-4-thia-2,12-diazatricyclo[7.3.0.0^3,7]dodeca-1,3(7),5-trien-8-one] | 98 | 100 | 0.08 | – | 100 | 0.01 | 82 | 79 | 81 | 0.17 | 46 | 44 | 45 | 0.01 | 71 | 72 | 70 | – | –
6 | CN(C)c1ccc(N2CCC3(O)C(=O)c4ccncc4N=C23)cc1 (stereo not drawn) [Compound 251, 1-[4-(Dimethylamino)phenyl]-3a-hydroxy-1H,2H,3H,3aH,4H-pyrrolo[2,3-b]1,7-naphthyridin-4-one] | 47 | 85 | 4.8 | – | 93 | > 100 | 0 | 25 | 100 | > 100 | – | 1 | 1 | 6 | 15 | 6 | 13 | – | 15
7 | Cc1cc2c(s1)N=C1NCCC1(O)C2=O (stereo not drawn) [Compound 231, 9-Hydroxy-5-methyl-4-thia-2,12-diazatricyclo[7.3.0.0^3,7]dodeca-1,3(7),5-trien-8-one] | 5 | 7 | 1.4 | 7 | 7 | 1 | 7 | 2 | 5 | > 100 | – | 4 | 0 | 1 | – | 6 | 5 | 5 | –
8 | O=C1c2ccncc2N=C2N(c3ccc(N4CCOCC4)cc3)CCC12O (stereo not drawn) [Compound 248, 3a-Hydroxy-1-[4-(morpholin-4-yl)phenyl]-1H,2H,3H,3aH,4H-pyrrolo[2,3-b]1,7-naphthyridin-4-one] | 21 | 56 | 12 | – | 70 | > 100 | 1 | 0 | 0 | > 100 | 100 | 0 | 7 | > 100 | 2 | 4 | 1 | – | –
9 | O=C1c2ccncc2N=C2NCCC12O (stereo not drawn) [Compound 255, 3a-Hydroxy-1H,2H,3H,3aH,4H-pyrrolo[2,3-b]1,7-naphthyridin-4-one] | 6 | 7 | 1.7 | 7 | 7 | 1 | 3 | 3 | 3 | 42 | 33 | 4 | 18 | 1 | – | 7 | 7 | – | –
